Laboratory results taken from patent US11459315B2, “Modulators of methyl modifying enzymes, compositions and uses thereof” (Constellation Pharmaceuticals, Inc., priority 2017, dated 2022).

Target: PRC2 containing wt EZH2 (Homo sapiens (Human), UniProt Q15910)
Assay: EZH2 biochemical assay (IC50), 3H-SAM incorporation into biotinylated H3 peptide
Conditions: 30 pM PRC2 containing wt EZH2; 3-5 h pre-incubation; read-out: EZH2 (IC50)
Procedure, shortened: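 Activity was measured as ³H-methyl transfer to a biotinylated H3K27me1 peptide over 18-22 h at room temperature, with capture on streptavidin flash plates. The 30 pM wt-EZH2 PRC2 complex was first pre-incubated 3-5 h with compound, 450 nM SAM/450 nM ³H-SAM and 2 µM H3K27me3 activator (pH 8.5, 0.8% DMSO). Four-parameter fits gave IC50.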

PRC2 containing wt EZH2, sequence (Q15910 whole entry): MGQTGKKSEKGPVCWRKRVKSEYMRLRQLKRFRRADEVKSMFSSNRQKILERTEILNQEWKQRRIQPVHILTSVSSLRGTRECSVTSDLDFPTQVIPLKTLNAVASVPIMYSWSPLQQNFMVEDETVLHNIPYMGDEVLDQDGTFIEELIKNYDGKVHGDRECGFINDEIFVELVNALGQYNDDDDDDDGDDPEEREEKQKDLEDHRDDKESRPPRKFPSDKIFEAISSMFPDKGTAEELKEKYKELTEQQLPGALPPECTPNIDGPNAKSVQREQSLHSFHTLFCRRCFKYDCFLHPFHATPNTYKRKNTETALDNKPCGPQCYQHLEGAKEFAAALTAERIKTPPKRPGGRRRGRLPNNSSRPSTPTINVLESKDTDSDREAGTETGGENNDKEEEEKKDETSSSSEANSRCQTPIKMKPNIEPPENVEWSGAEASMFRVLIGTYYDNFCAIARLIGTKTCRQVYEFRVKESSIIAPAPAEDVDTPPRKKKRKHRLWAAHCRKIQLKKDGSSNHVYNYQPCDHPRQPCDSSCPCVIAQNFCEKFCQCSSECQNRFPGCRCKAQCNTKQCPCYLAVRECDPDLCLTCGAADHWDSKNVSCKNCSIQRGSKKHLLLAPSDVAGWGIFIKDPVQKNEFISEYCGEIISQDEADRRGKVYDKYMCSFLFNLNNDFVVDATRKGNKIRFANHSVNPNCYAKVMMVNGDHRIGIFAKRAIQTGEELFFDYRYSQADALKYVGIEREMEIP
PRC2 containing wt EZH2, sequence (O75530 whole entry partner): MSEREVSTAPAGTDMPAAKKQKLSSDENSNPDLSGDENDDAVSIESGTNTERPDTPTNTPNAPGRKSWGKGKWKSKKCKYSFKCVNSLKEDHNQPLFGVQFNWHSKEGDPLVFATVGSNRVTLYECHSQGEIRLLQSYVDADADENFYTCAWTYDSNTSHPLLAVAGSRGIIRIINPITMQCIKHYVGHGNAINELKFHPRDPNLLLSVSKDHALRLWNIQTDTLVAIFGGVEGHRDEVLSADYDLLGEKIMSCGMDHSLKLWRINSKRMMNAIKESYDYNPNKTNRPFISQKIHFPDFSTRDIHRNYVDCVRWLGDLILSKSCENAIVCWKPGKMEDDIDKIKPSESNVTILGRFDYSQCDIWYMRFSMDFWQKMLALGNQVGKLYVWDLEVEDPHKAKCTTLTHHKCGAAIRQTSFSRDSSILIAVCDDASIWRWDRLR
PRC2 containing wt EZH2, sequence (Q15022 whole entry partner): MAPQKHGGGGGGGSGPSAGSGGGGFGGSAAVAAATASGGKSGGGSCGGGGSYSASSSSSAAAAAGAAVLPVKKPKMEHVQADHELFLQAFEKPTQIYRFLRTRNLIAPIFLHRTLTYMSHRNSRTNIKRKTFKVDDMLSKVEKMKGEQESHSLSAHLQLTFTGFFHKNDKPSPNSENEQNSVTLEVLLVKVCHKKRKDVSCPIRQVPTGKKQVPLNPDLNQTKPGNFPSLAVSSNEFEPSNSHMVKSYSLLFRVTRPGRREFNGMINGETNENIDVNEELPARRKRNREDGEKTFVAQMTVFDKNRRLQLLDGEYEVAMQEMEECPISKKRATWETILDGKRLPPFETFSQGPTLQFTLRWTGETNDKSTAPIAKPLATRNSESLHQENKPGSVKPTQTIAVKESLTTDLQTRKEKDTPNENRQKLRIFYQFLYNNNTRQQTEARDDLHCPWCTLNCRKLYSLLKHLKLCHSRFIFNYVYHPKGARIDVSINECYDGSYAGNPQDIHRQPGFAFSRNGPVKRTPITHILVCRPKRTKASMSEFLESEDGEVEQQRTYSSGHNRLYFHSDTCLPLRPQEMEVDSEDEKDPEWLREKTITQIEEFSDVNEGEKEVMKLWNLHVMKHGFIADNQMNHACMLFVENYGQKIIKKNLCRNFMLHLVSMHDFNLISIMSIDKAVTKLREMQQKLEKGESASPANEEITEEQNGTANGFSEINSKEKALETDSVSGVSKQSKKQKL
PRC2 containing wt EZH2, sequence (Q09028 whole entry partner): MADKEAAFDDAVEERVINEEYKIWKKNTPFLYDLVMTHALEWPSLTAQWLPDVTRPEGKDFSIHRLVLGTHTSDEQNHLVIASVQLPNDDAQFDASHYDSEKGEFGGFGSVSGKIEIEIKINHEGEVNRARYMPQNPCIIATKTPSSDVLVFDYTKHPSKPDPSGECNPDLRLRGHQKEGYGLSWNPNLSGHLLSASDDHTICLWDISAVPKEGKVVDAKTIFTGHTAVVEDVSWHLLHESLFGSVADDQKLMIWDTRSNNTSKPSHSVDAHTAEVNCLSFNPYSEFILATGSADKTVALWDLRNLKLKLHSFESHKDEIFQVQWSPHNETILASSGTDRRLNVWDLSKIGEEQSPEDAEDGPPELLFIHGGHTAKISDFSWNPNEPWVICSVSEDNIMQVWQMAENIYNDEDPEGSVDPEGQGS
PRC2 containing wt EZH2, sequence (Q6ZN18 whole entry partner): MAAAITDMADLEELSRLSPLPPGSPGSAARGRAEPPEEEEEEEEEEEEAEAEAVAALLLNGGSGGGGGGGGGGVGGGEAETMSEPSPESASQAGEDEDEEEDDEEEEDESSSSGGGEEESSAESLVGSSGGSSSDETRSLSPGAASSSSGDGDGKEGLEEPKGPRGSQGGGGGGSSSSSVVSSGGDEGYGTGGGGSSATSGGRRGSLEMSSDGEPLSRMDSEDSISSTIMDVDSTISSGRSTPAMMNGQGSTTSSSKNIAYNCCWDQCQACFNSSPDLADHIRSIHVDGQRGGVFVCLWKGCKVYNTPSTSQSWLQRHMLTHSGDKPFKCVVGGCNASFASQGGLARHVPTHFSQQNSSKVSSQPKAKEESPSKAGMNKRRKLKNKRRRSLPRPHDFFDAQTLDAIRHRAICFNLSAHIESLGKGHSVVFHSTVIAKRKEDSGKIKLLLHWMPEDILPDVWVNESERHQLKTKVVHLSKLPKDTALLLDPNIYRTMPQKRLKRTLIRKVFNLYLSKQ

Compound	IC50 [nM]
COC1(C)CN(C2CCC([C@@H](C)n3c(C)c(C(=O)NCc4c(SC)cc(C)[nH]c4=O)c4ccccc43)CC2)C1 (single isomer, unassigned) [90 (isomer 1)]	< 0.5
COC1(C)CN(C2CCC([C@@H](C)n3c(C)c(C(=O)NCc4c(SC)cc(C)[nH]c4=O)c4ccccc43)CC2)C1 (single isomer, unassigned) [90 (isomer 2)]	< 0.5
CCOC1CN(C2CCC([C@@H](C)n3c(C)c(C(=O)NCc4c(SC)cc(C)[nH]c4=O)c4cccnc43)CC2)C1 (single isomer, unassigned) [91 (isomer 1)]	< 0.5
CCOC1CN(C2CCC([C@@H](C)n3c(C)c(C(=O)NCc4c(SC)cc(C)[nH]c4=O)c4cccnc43)CC2)C1 (single isomer, unassigned) [91 (isomer 2)]	< 0.5
COC1CN(C2CCC([C@@H](C)n3c(C)c(C(=O)NCc4c(SC)cc(C)[nH]c4=O)c4cc(F)cnc43)CC2)C1 (single isomer, unassigned) [94 (isomer 1)]	< 0.5
COC1CN(C2CCC([C@@H](C)n3c(C)c(C(=O)NCc4c(SC)cc(C)[nH]c4=O)c4cc(F)cnc43)CC2)C1 (single isomer, unassigned) [94 (isomer 2)]	0.5 to 5
CSc1cc(C)[nH]c(=O)c1CNC(=O)c1c(C)n([C@H](C)C2CCC(N3CC(OC4CC4)C3)CC2)c2ncncc12 (single isomer, unassigned) [102 (isomer 1)]	< 0.5
CSc1cc(C)[nH]c(=O)c1CNC(=O)c1c(C)n([C@H](C)C2CCC(N3CC(OC4CC4)C3)CC2)c2ncncc12 (single isomer, unassigned) [102 (isomer 2)]	< 0.5
CO[C@@H]1CN(C2CCC([C@@H](C)n3c(C)c(C(=O)NCc4c(SC)cc(C)[nH]c4=O)c4cccnc43)CC2)C[C@H]1F (single isomer, unassigned) [104 (isomer 1)]	0.5 to 5
CO[C@@H]1CN(C2CCC([C@@H](C)n3c(C)c(C(=O)NCc4c(SC)cc(C)[nH]c4=O)c4cccnc43)CC2)C[C@H]1F (single isomer, unassigned) [104 (isomer 2)]	0.5 to 5
COC1CN(C2CCC([C@@H](C)n3c(C)c(C(=O)NCc4c(SC)cc(C)[nH]c4=O)c4cc(Cl)cnc43)CC2)C1 (single isomer, unassigned) [106 (isomer 1)]	< 0.5
COC1CN(C2CCC([C@@H](C)n3c(C)c(C(=O)NCc4c(SC)cc(C)[nH]c4=O)c4cc(Cl)cnc43)CC2)C1 (single isomer, unassigned) [106 (isomer 2)]	< 0.5
CSc1cc(C)[nH]c(=O)c1CNC(=O)c1c(C)n([C@H](C)C2CCC(N3CC(OC(C)(C)C)C3)CC2)c2ncccc12 (single isomer, unassigned) [112 (isomer 1)]	< 0.5
CSc1cc(C)[nH]c(=O)c1CNC(=O)c1c(C)n([C@H](C)C2CCC(N3CC(OC(C)(C)C)C3)CC2)c2ncccc12 (single isomer, unassigned) [112 (isomer 2)]	< 0.5
CSc1cc(C)[nH]c(=O)c1CNC(=O)c1c(C)n([C@H](C)C2CCC(N3CC(OC4CC4)C3)CC2)c2c(F)cccc12 (single isomer, unassigned) [113 (isomer 1)]	< 0.5
CSc1cc(C)[nH]c(=O)c1CNC(=O)c1c(C)n([C@H](C)C2CCC(N3CC(OC4CC4)C3)CC2)c2c(F)cccc12 (single isomer, unassigned) [113 (isomer 2)]	< 0.5

System: H3K27me3 mark in HeLa cells (EZH2)
Assay: H3K27me3 Alpha Hela Assay (AlphaLISA)
Type: cell-based
Conditions: HeLa cells, 72 hrs; read-out: EZH2 Cell H3K27me3 Alpha HeLa (EC50 K27me3)
Procedure, shortened: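 HeLa cells (1,000/well) treated with ten 3-fold compound doses for 72 h at 37 °C; lysates extracted and H3K27me3 detected by AlphaLISA with anti-K27me3 acceptor beads, biotinylated anti-H3 (3 nM) and streptavidin donor beads. EC50 from DMSO-normalized dose-response curves; duplicate plate assessed viability.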

Compound	EC50 [nM]
COC1(C)CN(C2CCC([C@@H](C)n3c(C)c(C(=O)NCc4c(SC)cc(C)[nH]c4=O)c4ccccc43)CC2)C1 (single isomer, unassigned) [90 (isomer 1)]	10 to 100
COC1(C)CN(C2CCC([C@@H](C)n3c(C)c(C(=O)NCc4c(SC)cc(C)[nH]c4=O)c4ccccc43)CC2)C1 (single isomer, unassigned) [90 (isomer 2)]	> 100
CCOC1CN(C2CCC([C@@H](C)n3c(C)c(C(=O)NCc4c(SC)cc(C)[nH]c4=O)c4cccnc43)CC2)C1 (single isomer, unassigned) [91 (isomer 2)]	10 to 100
COC1CN(C2CCC([C@@H](C)n3c(C)c(C(=O)NCc4c(SC)cc(C)[nH]c4=O)c4cc(F)cnc43)CC2)C1 (single isomer, unassigned) [94 (isomer 1)]	< 10
COC1CN(C2CCC([C@@H](C)n3c(C)c(C(=O)NCc4c(SC)cc(C)[nH]c4=O)c4cc(F)cnc43)CC2)C1 (single isomer, unassigned) [94 (isomer 2)]	> 100
CSc1cc(C)[nH]c(=O)c1CNC(=O)c1c(C)n([C@H](C)C2CCC(N3CC(OC4CC4)C3)CC2)c2ncncc12 (single isomer, unassigned) [102 (isomer 2)]	10 to 100
CO[C@@H]1CN(C2CCC([C@@H](C)n3c(C)c(C(=O)NCc4c(SC)cc(C)[nH]c4=O)c4cccnc43)CC2)C[C@H]1F (single isomer, unassigned) [104 (isomer 1)]	10 to 100
CO[C@@H]1CN(C2CCC([C@@H](C)n3c(C)c(C(=O)NCc4c(SC)cc(C)[nH]c4=O)c4cccnc43)CC2)C[C@H]1F (single isomer, unassigned) [104 (isomer 2)]	> 100
COC1CN(C2CCC([C@@H](C)n3c(C)c(C(=O)NCc4c(SC)cc(C)[nH]c4=O)c4cc(Cl)cnc43)CC2)C1 (single isomer, unassigned) [106 (isomer 2)]	10 to 100
CSc1cc(C)[nH]c(=O)c1CNC(=O)c1c(C)n([C@H](C)C2CCC(N3CC(OC(C)(C)C)C3)CC2)c2ncccc12 (single isomer, unassigned) [112 (isomer 2)]	10 to 100
CSc1cc(C)[nH]c(=O)c1CNC(=O)c1c(C)n([C@H](C)C2CCC(N3CC(OC4CC4)C3)CC2)c2c(F)cccc12 (single isomer, unassigned) [113 (isomer 2)]	10 to 100

Same assay, conditions: Homo sapiens, HeLa, 72 h, HeLa cells, 72 hrs; read-out: EZH2 Cell H3K27me3 Alpha HeLa (EC50 K27me3)

Compound	EC50 [nM]
CCOC1CN(C2CCC([C@@H](C)n3c(C)c(C(=O)NCc4c(SC)cc(C)[nH]c4=O)c4cccnc43)CC2)C1 (single isomer, unassigned) [91 (isomer 1)]	< 10
CSc1cc(C)[nH]c(=O)c1CNC(=O)c1c(C)n([C@H](C)C2CCC(N3CC(OC4CC4)C3)CC2)c2ncncc12 (single isomer, unassigned) [102 (isomer 1)]	< 10
COC1CN(C2CCC([C@@H](C)n3c(C)c(C(=O)NCc4c(SC)cc(C)[nH]c4=O)c4cc(Cl)cnc43)CC2)C1 (single isomer, unassigned) [106 (isomer 1)]	< 10
CSc1cc(C)[nH]c(=O)c1CNC(=O)c1c(C)n([C@H](C)C2CCC(N3CC(OC(C)(C)C)C3)CC2)c2ncccc12 (single isomer, unassigned) [112 (isomer 1)]	< 10
CSc1cc(C)[nH]c(=O)c1CNC(=O)c1c(C)n([C@H](C)C2CCC(N3CC(OC4CC4)C3)CC2)c2c(F)cccc12 (single isomer, unassigned) [113 (isomer 1)]	< 10
